{
  "source": "patent US20150265656A1",
  "about": "“HUMAN ENDOCRINE PROGENITORS FROM ADULT PANCREATIC TISSUE” (THE JOHNS HOPKINS UNIVERSITY, priority 2012, published 2015)",
  "key": {"[1]": {"test_system": "NGN3+ cells in cultured adult human pancreatic tissue", "experiment": "% NGN3+ nuclei/cells in cultured pancreatic tissue (immunostaining)", "type": "cell-based", "method": "Human cadaveric pancreas tissue that had been enzymatically digested and subjected to density centrifugation (57) was received 2-3 days post mortem. In all experiments, stated replication refers to the number of cultures from individual organ donors unless otherwise defined. Islet purity varied between preparations from <10% to >90%. Pancreatic tissue was resuspended in 10 ml Miami Media 1A (Mediatech) supplemented with freshly prepared 0.01 g/L glutathione and cultured in low adhesion dishes at 37° C. for 4 days. Media was replaced every 2-3 days. Inhibition of γ-secretase was carried out by daily addition of N—[N-(3,5-Difluorophenacetyl-L-alanyl)]-S-phenylglycine t-butyl ester (DAPT, Tocris Biosciences) or 7-Amino-4-chloro-3-methoxyisocoumarin (JLK6, EMD Biosceinces). JAG-1 (ANASPEC), a 17-residue polypeptide corresponding to amino acids 188-204 of the Jagged-1 Notch ligand (58) and a negative control polypeptide comprised of scrambled JAG-1 amino acids were used at 47 μM. A second Notch ligand, Delta-like ligand 4 (D114)(R&D Systems) was used at 500 ng/ml. Inhibition of proteasome degradation was carried out with N-[(Phenylmethoxy)carbonyl]-L-leucyl-N-[(1S)-1-formyl-3-methylbutyl]-L-leucinamide (MG132, Tocris Bioscience) and (2R,3S,4R)-3-Hydroxy-2-[(1S)-1-hydroxy-2-methylpropyl]-4-methyl-5-oxo-2-pyrrolidinecarboxy-N-acetyl-L cysteine thioester (clasto-lactacystin beta-lactone, Tocris Bioscience). Inhibition of EGF receptor kinase was carried out with N-(3-Chlorophenyl)-6,7-dimethoxy-4-quinazolinanine hydrochloride (AG1478, Tocris Bioscience) and with N-(3-Chlorophenyl)-6,7-dimethoxy-4-quinazolinanine hydrochloride (Erlotinib, Cayman Chemical). STAT3 activation was blocked with a cell-permeable analog of the STAT3-SH2 domain-binding phosphopeptide (PpYLKTK-mts, EMD Biosciences).\nTissues stained for NGN3 expression were sectioned and stained as soon as possible after harvest. Freshly sectioned 5-8 micron frozen sections of islet preparation tissue were fixed for 5 min. in 4% paraformaldehyde (PFA) prepared in phosphate buffered saline (PBS), quenched for 5 min in 50 mM glycine in PBS then blocked in 5% donkey serum, 1% BSA in PBS for 30 min. at room temperature. 0.1 to 0.2% Triton-X100 was included for cytoplasmic and nuclear antigens, respectively. Primary antibodies were diluted in blocking buffer; mouse anti-CD133/1 (IgG1) and CD133/2 (IgG2b) unconjugated and conjugated to phycoerythrin (Miltenyi Biotec), mouse anti-cytokeratin 19 (CK19, Chemicon), guinea pig anti-swine insulin (Dako), rabbit anti-CPEP (LINCO), mouse anti-GLU (R&D Systems), goat anti-PDX1 (gift from Chris Wright), mouse anti-CgA (Dako); goat anti-amylase (AMY, Santa Cruz), mouse anti-NGN3 (Developmental Studies Hybridoma Bank, Iowa City, Iowa, hybridoma supernatant), rabbit anti-cleaved caspase-3 (Cell Signaling Technology), rabbit Ki67 (abcam), mouse anti-human E-cadherin (Invitrogen). BrdU and EdU detection were by kit from BD Bioscience and Invitrogen, respectively. Quantitative analysis of protein expression on frozen sections was carried out by imaging >800 nuclei in randomly selected fields for each treatment group. For analysis of CD133+ cells immediately after preparative fluorescent activated cell sorting (FACS), cells were immobilized, fixed and quenched directly on glass slides using a cytospin. For identification and quantification cells within pancospheres, spheres were fixed and stained similarly to tissue sections except all incubations and washes were overnight at 4° C. Stained pancospheres were mounted on coverslipped glass slides. For quantitative analyses, unbiased stereology (Stereo Investigator software) was used to estimate number of nuclei per pancosphere. Sectioned tissue and pancospheres were imaged by confocal microscopy through the Z-axis in a series of 1 micron optical sections using sequential acquisition mode. […] Mean % CPEP, % GLU and % CgA were calculated from a total of 17 pancospheres."}, "[2]": {"test_system": "NGN3 mRNA", "experiment": "NGN3 mRNA level in cultured pancreatic tissue (quantitative RT-PCR)", "type": "cell-based, human", "details": "4 days of culture", "method": "(§1) Human cadaveric pancreas tissue that had been enzymatically digested and subjected to density centrifugation (57) was received 2-3 days post mortem. In all experiments, stated replication refers to the number of cultures from individual organ donors unless otherwise defined. Islet purity varied between preparations from <10% to >90%. Pancreatic tissue was resuspended in 10 ml Miami Media 1A (Mediatech) supplemented with freshly prepared 0.01 g/L glutathione and cultured in low adhesion dishes at 37° C. for 4 days. Media was replaced every 2-3 days. […]\n(§2) Human adult and fetal pancreas RNA was commercially prepared. […] Levels of HES 1, PTF1A, PDX1, NGN3 and CYCLOPHILLIN A were determined by using Taqman® gene expression assays Hs00172878_m1, Hs00603586_g1, Hs00426216_m1, Hs00360700_g1 and Hs99999904_m1, respectively. Mean levels (6 readings/sample) of genes of interest were normalized to mean levels of CYCLOPHILLIN A. MicroRNAs hsa-mir-15a, hsa-mir-15b, hsa-mir-16 and hsa-mir-195 levels were measured using sequence specific reverse transcriptase primers and TaqMan® detection reagents (Applied Biosystems). Mean levels (6 readings/sample) of miRNAs were normalized to mean levels of 18S rRNA (Applied Biosystems Ribosomal RNA Reagent). Significance of RTPCR data was determined by ANOVA with Bonferroni-Holm Post hoc testing."}, "[3]": {"test_system": "PTF1A mRNA", "experiment": "PTF1A mRNA level in cultured pancreatic tissue (quantitative RT-PCR)", "type": "cell-based, human", "details": "4 days of culture", "method": "as §1, §2"}, "[4]": {"test_system": "HES1 mRNA", "experiment": "HES1 mRNA level in cultured pancreatic tissue (quantitative RT-PCR)", "type": "cell-based, human", "details": "4 days of culture", "method": "as §1, §2"}, "[5]": {"test_system": "pancospheres from CD133+/NGN3+ cells", "experiment": "Pancosphere endocrine maturation, hormone-expressing cells", "type": "cell-based, human", "details": "maturation media with 10 μM MPA", "method": "To form pancospheres, CD133+ cells were resuspended at 2×10^5 cells/ml in HuES media [Knockout DMEM (Invitrogen), 10% Knockout Serum Replacement (Invitrogen), 10% Albumax, 10 ng/ml fibroblast growth factor 2 (FGF2), 1×Na pyruvate, and 1× non-essential amino acids] conditioned by overnight incubation on human SDEC cells (59, 60) and 1-2% Matrigel. Media was supplemented every 3-4 days for up to 21 days. Media was then changed to Maturation media [RPMI 1640, 0.5% BSA, 10 mM nicotinamide, 50 ng/ml human insulin like growth factor II (IGF II, R&D Systems)] for 7 days with addition of fresh nicotinamide and IGF II every 2 days without media change. IGF II was then slowly withdrawn by subsequent 50% media changes. […]\nTissues stained for NGN3 expression were sectioned and stained as soon as possible after harvest. […] Quantitative analysis of protein expression on frozen sections was carried out by imaging >800 nuclei in randomly selected fields for each treatment group. […] For identification and quantification cells within pancospheres, spheres were fixed and stained similarly to tissue sections except all incubations and washes were overnight at 4° C. […] For quantitative analyses, unbiased stereology (Stereo Investigator software) was used to estimate number of nuclei per pancosphere. […] Mean % CPEP, % GLU and % CgA were calculated from a total of 17 pancospheres."}},
  "note": "Peptide text beside a SMILES is read from it. * marks the point of attachment. Cbz = O=C(OCc1ccccc1)*",
  "data": [
    {"compound": "COc1cc2ncnc(Nc3cccc(Cl)c3)c2cc1OC.Cl", "note": "[AG1478, N-(3-Chlorophenyl)-6,7-dimethoxy-4-quinazolinanine hydrochloride]", "values": [
      {"measurement": "% NGN3+ cells, % of carrier control", "setting": "[1]; 3 nM AG1478, 4 days", "value": "69.1%±7.3"},
      {"measurement": "% NGN3+ cells, % of carrier control", "setting": "[1]; 30 nM AG1478, 4 days", "value": "62.3%±8.2"}
    ]},
    {"compound": "C[C@H](NC(=O)Cc1cc(F)cc(F)c1)C(=O)N[C@H](C(=O)OC(C)(C)C)c1ccccc1", "note": "[DAPT, N—[N-(3,5-Difluorophenacetyl-L-alanyl)]-S-phenylglycine t-butyl ester]", "values": [
      {"measurement": "% of cells expressing NGN3 protein, % of carrier control", "setting": "[1]; 2 μM DAPT, 4 days", "value": "124%±1.1"},
      {"measurement": "% of cells expressing NGN3 protein, % of carrier control", "setting": "[1]; 20 μM DAPT, 4 days", "value": "152.0%±2.2"},
      {"measurement": "effect on the D114-induced decrease of % NGN3+ cells", "setting": "[1]; DAPT together with D114", "value": "blocked"},
      {"measurement": "level of NGN3 mRNA, % of carrier control", "setting": "[2]; 2 μM DAPT", "value": "927.4%±52.6"},
      {"measurement": "level of NGN3 mRNA, % of carrier control", "setting": "[2]; 20 μM DAPT", "value": "1886.3%±102.4"},
      {"measurement": "level of PTF1A mRNA, % of carrier control", "setting": "[3]; 2 μM DAPT", "value": "331.2%±10.8"},
      {"measurement": "level of PTF1A mRNA, % of carrier control", "setting": "[3]; 20 μM DAPT", "value": "391.6%±28.8"},
      {"measurement": "level of HES1 mRNA, % of carrier control", "setting": "[4]; 2 μM DAPT", "value": "63.0%±3.3"},
      {"measurement": "level of HES1 mRNA, % of carrier control", "setting": "[4]; 20 μM DAPT", "value": "55.4%±1.5"}
    ]},
    {"compound": "C#Cc1cccc(Nc2ncnc3cc(OCCOC)c(OCCOC)cc23)c1", "note": "[Erlotinib]", "values": [
      {"measurement": "% NGN3+ cells", "setting": "[1]; 0.25 μM Erlotinib, n=1, data not shown", "value": "31.0±4.8"}
    ]},
    {"compound": "COc1oc(=O)c2cc(N)ccc2c1Cl", "note": "[JLK6, 7-Amino-4-chloro-3-methoxyisocoumarin]", "values": [
      {"measurement": "effect on % of cells expressing NGN3 protein", "setting": "[1]; JLK6 treatment, 4 days", "value": "No significant effect"}
    ]},
    {"compound": "CC(C)C[C@@H](C=O)NC(=O)[C@H](CC(C)C)NC(=O)[C@H](CC(C)C)NC(=O)OCc1ccccc1", "note": "[MG132, N-[(Phenylmethoxy)carbonyl]-L-leucyl-N-[(1S)-1-formyl-3-methylbutyl]-L-leucinamide] (Cbz-Leu-Leu-Leu-aldehyde)", "values": [
      {"measurement": "% NGN3+ cells, % of carrier control", "setting": "[1]; 1 μM MG132, 4 days", "value": "182.8%±14.9"},
      {"measurement": "% NGN3+ cells, % of carrier control", "setting": "[1]; 10 μM MG132, 4 days", "value": "478.8%±33.6"},
      {"measurement": "% NGN3+ cells, % of carrier control", "setting": "[1]; 20 μM MG132, 4 days", "value": "533.6%±28.9"}
    ]},
    {"compound": "COc1c(C)c2c(c(O)c1C/C=C(\\C)CCC(=O)O)C(=O)OC2", "note": "[MPA, Mycophenolic acid]", "values": [
      {"measurement": "% cells GLU+ in pancospheres", "setting": "[5]; carrier control 0.58%±0.2, P>0.05", "value": "1.1%±0.23"},
      {"measurement": "% cells CPEP+ in pancospheres", "setting": "[5]; carrier control 1.0±0.3", "value": "2.9%±0.4"}
    ]},
    {"compound": "D114: Notch ligand Delta-like ligand 4 (R&D Systems)", "values": [
      {"measurement": "% of NGN3+ cells, percent of carrier control", "setting": "[1]; 500 ng/ml, data not shown", "value": "60.1%±11.4"}
    ]},
    {"compound": "EGF: EGF receptor ligand added to culture (NSDSECPLSHDGYCLHDGVCMYIEALDKYACNCVVGYIGERCQYRDLKWWELR; Epidermal growth factor; UniProt P01133 971-1023, looked up)", "values": [
      {"measurement": "change of % NGN3+ cells", "setting": "[1]; addition of EGF 20 ng/ml", "value": "failed to significantly change"}
    ]},
    {"compound": "JAG-1 peptide: 17-residue polypeptide corresponding to amino acids 188-204 of the Jagged-1 Notch ligand (DDYYYGFGCNKFCRPRD; UniProt P78504 188-204, looked up, fragment)", "values": [
      {"measurement": "% of cells expressing NGN3 protein, % of cells treated with scrambled peptide (SJAG)", "setting": "[1]; 47 μM, 4 days", "value": "39.0%±6.5"}
    ]},
    {"compound": "TGFα: EGF receptor ligand added to culture", "values": [
      {"measurement": "change of % NGN3+ cells", "setting": "[1]; addition of TGFα 40 ng/ml", "value": "failed to significantly change"}
    ]}
  ]
}
